Measured values taken from PubChem BioAssay AID330 (DTP/NCI, 2004).
“And” between values parts separate entries of the source, which are not always exact repeats. Identical values can stand only once. Inconclusive results and toxic doses are left out.

System: P388 leukemia ip, CD2F1 mice, survival T/C
Experiment: NCI In Vivo Anticancer Drug Screen. Data for tumor model P388 Leukemia (intraperitoneal) in CD2F1 (CDF1) mice
Conditions: endpoint: median survival time, higher = longer survival
In short: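 Mice carrying the transplanted tumor received test compound or vehicle. Survival was recorded in each group, and the value is the treated-group measurement divided by that of the vehicle-treated control group.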

[1] = dose: 50.0 mg/kg/injection, schedule: Q01DX005 (ip), vehicle: Klucel (hydroxypropylcellulose) (HPC)
[2] = dose: 100.0 mg/kg/injection, schedule: Q01DX005 (ip), vehicle: Klucel (hydroxypropylcellulose) (HPC)
[3] = dose: 200.0 mg/kg/injection, schedule: Q01DX005 (ip), vehicle: Klucel (hydroxypropylcellulose) (HPC)
[4] = dose: 100.0 mg/kg/injection, schedule: Q04DX003 (ip), vehicle: saline with Tween-80
[5] = dose: 200.0 mg/kg/injection, schedule: Q04DX003 (ip), vehicle: saline with Tween-80
[6] = dose: 400.0 mg/kg/injection, schedule: Q04DX003 (ip), vehicle: saline with Tween-80
[7] = dose: 50.0 mg/kg/injection, schedule: Q01DX005 (ip), vehicle: saline with Tween-80
[8] = dose: 100.0 mg/kg/injection, schedule: Q01DX005 (ip), vehicle: saline with Tween-80
[9] = dose: 50.0 mg/kg/injection, schedule: Q01DX009 (ip), vehicle: saline with Tween-80
[10] = dose: 100.0 mg/kg/injection, schedule: Q01DX009 (ip), vehicle: saline with Tween-80
[11] = dose: 200.0 mg/kg/injection, schedule: Q01DX009 (ip), vehicle: saline with Tween-80
[12] = dose: 200.0 mg/kg/injection, schedule: Q01DX005 (ip), vehicle: saline with Tween-80
[13] = dose: 60.0 mg/kg/injection, schedule: Q01DX005 (ip), vehicle: Klucel (hydroxypropylcellulose) (HPC)
[14] = dose: 120.0 mg/kg/injection, schedule: Q01DX005 (ip), vehicle: Klucel (hydroxypropylcellulose) (HPC)
[15] = dose: 240.0 mg/kg/injection, schedule: Q01DX005 (ip), vehicle: Klucel (hydroxypropylcellulose) (HPC)
[16] = dose: 60.0 mg/kg/injection, schedule: Q01DX005 (ip), vehicle: saline with Tween-80
[17] = dose: 240.0 mg/kg/injection, schedule: Q01DX005 (ip), vehicle: saline with Tween-80
[18] = dose: 6.25 mg/kg/injection, schedule: Q01DX005 (ip), vehicle: saline with Tween-80

CC(C)(O)c1ccccc1S(=O)c1ccccc1 (stereo not drawn) was tested, and the T/C (dose: 100.0 mg/kg/injection, schedule: Q01DX001 (ip), vehicle: Klucel (hydroxypropylcellulose) (HPC)) was 101 % of control, the T/C (dose: 200.0 mg/kg/injection, schedule: Q01DX001 (ip), vehicle: Klucel (hydroxypropylcellulose) (HPC)) was 100 % of control and the T/C (dose: 400.0 mg/kg/injection, schedule: Q01DX001 (ip), vehicle: Klucel (hydroxypropylcellulose) (HPC)) was 92 % of control.
For CCOC(=O)Nc1ccc2c3c(cccc13)-c1ccccc1-2, the T/C [1] was 90 % of control, the T/C [2] was 97 % of control and the T/C [3] was 91 % of control.
COc1ccc(OC)c2c1CCC1(C2)NC(=O)NC1=O (stereo not drawn) was tested, and the T/C [1] was 111 % of control, the T/C [2] was 100 % of control and the T/C [3] was 95 % of control.
For CC1=C(C(=O)N=C(N)C(Cl)(Cl)Cl)SCCO1, the T/C (dose: 50.0 mg/kg/injection, schedule: Q01DX005 (ip), vehicle: distilled water + alcohol) was 108 % of control, the T/C (dose: 100.0 mg/kg/injection, schedule: Q01DX005 (ip), vehicle: distilled water + alcohol) was 109 % of control and the T/C (dose: 200.0 mg/kg/injection, schedule: Q01DX005 (ip), vehicle: distilled water + alcohol) was 117 % of control.
In the case of CCOC(=O)C(C)(C)CN(CC(C)(C)C(=O)OCC)C(C)(C)C, the T/C [4] is reported as 109 % of control, the T/C [5] is reported as 109 % of control and the T/C [6] is reported as 122 % of control.
CCCCCNc1ncnc2[nH]ncc12 was tested, and the T/C [7] was 96 % of control and the T/C [8] was 102 % of control.
With CCOC1CC(C)(C)c2c(-c3ccccc3)nn(-c3ccccc3)c2O1 (stereo not drawn) the T/C [9] was 94 % of control, the T/C [10] was 100 % of control and the T/C [11] was 98 % of control.
In the case of Cc1cn(C)c2c1-c1c(cnn1-c1ccccc1)CC2, the T/C (dose: 100.0 mg/kg/injection, schedule: Q04DX003 (ip), vehicle: Klucel (hydroxypropylcellulose) (HPC)) is reported as 100 % of control, the T/C (dose: 200.0 mg/kg/injection, schedule: Q04DX003 (ip), vehicle: Klucel (hydroxypropylcellulose) (HPC)) is reported as 102 % of control and the T/C (dose: 400.0 mg/kg/injection, schedule: Q04DX003 (ip), vehicle: Klucel (hydroxypropylcellulose) (HPC)) is reported as 93 % of control.
For O=C(Nc1ccc(Cc2ccc(NC(=O)C(c3ccccc3)c3ccccc3)cc2)cc1)C(c1ccccc1)c1ccccc1, the T/C [7] was 86 % of control, the T/C [8] was 95 % of control and the T/C [12] was 92 % of control.
For CN1C(=O)N(C)C2(C(=O)N(C)C(=O)N2C)N(C)C1=O, the T/C [13] was 99 % of control and 102 % of control, the T/C [14] was 96 % of control and the T/C [15] was 98 % of control and 105 % of control.
For CC(=O)Nc1nnc(-c2cc(=O)c3cc(Cl)ccc3o2)s1, the T/C [7] was 101 % of control, the T/C [8] was 92 % of control and the T/C [12] was 97 % of control.
For COC1=CC(=O)C(C(C)=O)=C(C2(C)C(=O)CCCC2=O)C1=O, the T/C [7] was 106 % of control, the T/C [8] was 89 % of control and the T/C [12] was 104 % of control.
For CCc1nc(N)nc(N)c1-c1ccc(N(C)C)c(N)c1, the T/C [1] was 100 % of control and the T/C [2] was 96 % of control.
With CCOC(=O)c1ccc(NC(=O)Nc2nc3c(Cl)cccc3s2)cc1 the T/C [9] was 104 % of control, the T/C [10] was 94 % of control and the T/C [11] was 87 % of control.
With O=C(NC(=S)Nc1cccc2c(O)cccc12)c1cccc(Br)c1 the T/C (dose: 15.0 mg/kg/injection, schedule: Q01DX005 (ip), vehicle: saline with Tween-80) was 91 % of control, the T/C (dose: 30.0 mg/kg/injection, schedule: Q01DX005 (ip), vehicle: saline with Tween-80) was 89 % of control and the T/C [16] was 91 % of control. The T/C [17] was 90 % of control and 94 % of control.
In the case of N=c1nc(N)ncn1-c1ccccc1, the T/C (dose: 1.56 mg/kg/injection, schedule: Q01DX005 (ip), vehicle: saline with Tween-80) is reported as 99 % of control and 102 % of control, the T/C (dose: 3.13 mg/kg/injection, schedule: Q01DX005 (ip), vehicle: saline with Tween-80) is reported as 103 % of control and 104 % of control and the T/C [18] is reported as 99 % of control and 102 % of control. For the same molecule, the T/C (dose: 12.5 mg/kg/injection, schedule: Q01DX005 (ip), vehicle: saline with Tween-80) was 102 % of control and 104 % of control and 108 % of control.
With CCOC(=O)/C=C/c1ccc2c(c1)OCO2 the T/C [4] was 100 % of control, the T/C [5] was 90 % of control and the T/C [6] was 100 % of control.
With CSc1nn(CCC#N)c(=O)[nH]c1=O the T/C (dose: 25.0 mg/kg/injection, schedule: Q01DX005 (ip), vehicle: water) was 104 % of control, the T/C (dose: 50.0 mg/kg/injection, schedule: Q01DX005 (ip), vehicle: water) was 103 % of control and the T/C [13] was 105 % of control. The T/C (dose: 100.0 mg/kg/injection, schedule: Q01DX005 (ip), vehicle: water) was 110 % of control, the T/C [14] was 100 % of control and the T/C [15] was 100 % of control.
For CCC1CC2CN(CCc3c([nH]c4ccccc34)C(C(=O)OC)(c3cc4c(cc3OC)N(C)C3C(O)(C(=O)OC)C(OC(C)=O)C5(CC)CCCN6CCC43C65)C2)C1 (stereo not drawn), the T/C (dose: 1.0 mg/kg/injection, schedule: Q01DX001 (ip), vehicle: water) was 124 % of control, the T/C (dose: 2.0 mg/kg/injection, schedule: Q01DX001 (ip), vehicle: water) was 122 % of control and the T/C (dose: 16.0 mg/kg/injection, schedule: Q01DX001 (ip), vehicle: water) was 153 % of control and 154 % of control. For the same molecule, the T/C (dose: 32.0 mg/kg/injection, schedule: Q01DX001 (ip), vehicle: water) was 163 % of control.
O=C(CC1=NC2NN(c3ccccc3)C(=O)C2=C1CC(=O)c1ccc(Cl)c(Cl)c1)c1ccc(Cl)c(Cl)c1 (stereo not drawn) was tested, and the T/C (dose: 60.0 mg/kg/injection, schedule: Q01DX005 (ip), vehicle: saline) was 99 % of control, the T/C (dose: 120.0 mg/kg/injection, schedule: Q01DX005 (ip), vehicle: saline) was 100 % of control and the T/C (dose: 240.0 mg/kg/injection, schedule: Q01DX005 (ip), vehicle: saline) was 107 % of control.
In the case of c1nc(N2CCCCC2)c2[nH]cnc2n1, the T/C [1] is reported as 109 % of control and the T/C [2] is reported as 104 % of control.
In the case of ClC1C(Cl)C(Cl)C(Cl)C(Cl)C1Cl (stereo not drawn), the T/C (dose: 12.5 mg/kg/injection, schedule: Q01DX009 (ip), vehicle: Klucel (hydroxypropylcellulose) (HPC)) is reported as 104 % of control and 113 % of control, the T/C (dose: 25.0 mg/kg/injection, schedule: Q01DX009 (ip), vehicle: Klucel (hydroxypropylcellulose) (HPC)) is reported as 104 % of control and 97 % of control and the T/C (dose: 25.0 mg/kg/injection, schedule: Q01DX009 (ip), vehicle: saline with Tween-80) is reported as 100 % of control and 104 % of control. The T/C (dose: 50.0 mg/kg/injection, schedule: Q01DX009 (ip), vehicle: Klucel (hydroxypropylcellulose) (HPC)) was 105 % of control and 98 % of control, the T/C [9] was 100 % of control and 108 % of control and the T/C (dose: 50.0 mg/kg/injection, schedule: Q04DX002 (ip), vehicle: saline with Tween-80) was 100 % of control. The T/C (dose: 100.0 mg/kg/injection, schedule: Q01DX009 (ip), vehicle: Klucel (hydroxypropylcellulose) (HPC)) was 89 % of control and 95 % of control, the T/C [10] was 100 % of control and 108 % of control and the T/C (dose: 100.0 mg/kg/injection, schedule: Q04DX002 (ip), vehicle: saline with Tween-80) was 100 % of control. For the same molecule, the T/C (dose: 150.0 mg/kg/injection, schedule: Q01DX009 (ip), vehicle: Klucel (hydroxypropylcellulose) (HPC)) was 99 % of control and 87 % of control, the T/C [11] was 100 % of control and 110 % of control and the T/C (dose: 200.0 mg/kg/injection, schedule: Q04DX002 (ip), vehicle: saline with Tween-80) was 90 % of control. The T/C (dose: 400.0 mg/kg/injection, schedule: Q01DX009 (ip), vehicle: saline with Tween-80) was 101 % of control and 114 % of control.
For O=c1[nH]cnc2cc3[nH]ncc3cc12, the T/C (dose: 1.5 mg/kg/injection, schedule: Q01DX005 (ip), vehicle: saline with Tween-80) was 95 % of control, the T/C (dose: 3.0 mg/kg/injection, schedule: Q01DX005 (ip), vehicle: saline with Tween-80) was 87 % of control and the T/C [18] was 97 % of control. The T/C [8] was 89 % of control and the T/C [12] was 88 % of control.
For O=C1C(Br)=C(O)C(c2ccccc2)N1c1ccccc1 (stereo not drawn), the T/C [16] was 110 % of control, the T/C (dose: 120.0 mg/kg/injection, schedule: Q01DX005 (ip), vehicle: saline with Tween-80) was 94 % of control and the T/C [17] was 113 % of control.
With S=C1NCCNC(=S)SS1 the T/C [2] was 108 % of control.
